Data from ChEMBL document CHEMBL4342418, “1,2,3-Triazole-containing hybrids as potential anticancer agents: Current developments, action mechanisms and structure-activity relationships” (Eur J Med Chem, 2019).
Each block holds one compound with its values, some of them ahead of it.

Columns and labels:
[1] = tested on: MDA-MB-231; assay: Antiproliferative activity against human MDA-MB-231 cells by MTT assay; assay type: functional, cell-based
[2] = tested on: HEK293; assay: Cytotoxicity against HEK293 cells by MTT assay; assay type: cell-based; conditions: Homo sapiens
[3] = tested on: DU-145; assay: Antiproliferative activity against human DU145 cells assessed as reduction in cell viability after 48 hrs by MTT assay; assay type: functional, cell-based; conditions: DU-145, 48 h
[4] = tested on: MDA-MB-231; assay: Antiproliferative activity against human MDA-MB-231 cells assessed as reduction in cell viability after 48 hrs by MTT assay; assay type: functional, cell-based; conditions: MDA-MB-231, 48 h
[5] = tested on: HEK293; assay: Cytotoxicity against HEK293 cells assessed as reduction in cell viability after 48 hrs by MTT assay; assay type: cell-based; conditions: Homo sapiens, HEK293, 48 h
[6] = tested on: HCT-116; assay: Antiproliferative activity against human HCT116 cells assessed as reduction in cell viability after 48 hrs by MTT assay; assay type: functional, cell-based; conditions: HCT-116, 48 h
[7] = tested on: A549; assay: Antiproliferative activity against human A549 cells assessed as reduction in cell viability after 48 hrs by MTT assay; assay type: functional, cell-based; conditions: A549, 48 h
[8] = tested on: A549; assay: Antiproliferative activity against human A549 cells assessed as reduction in cell viability after 72 hrs by MTT assay; assay type: functional, cell-based; conditions: A549, 72 h
[9] = tested on: HepG2; assay: Antiproliferative activity against human HepG2 cells assessed as reduction in cell viability after 72 hrs by MTT assay; assay type: functional, cell-based; conditions: HepG2, 72 h
[10] = tested on: MCF7; assay: Antiproliferative activity against human MCF7 cells assessed as reduction in cell viability after 72 hrs by MTT assay; assay type: functional, cell-based; conditions: MCF7, 72 h
[11] = tested on: HT-29; assay: Antiproliferative activity against human HT-29 cells by MTT assay; assay type: functional, cell-based
[12] = tested on: DU-145; assay: Antiproliferative activity against human DU145 cells by MTT assay; assay type: functional, cell-based
[13] = tested on: MCF7; assay: cells; assay type: functional, cell-based; conditions: Homo sapiens
Description: Antiproliferative activity against human MCF7 cells by MTT assay

[14] = tested on: MCF-10A; assay: Cytotoxicity against human MCF10A cells by MTT assay; assay type: cell-based
[15] = tested on: MV4-11; assay: Antiproliferative activity against human MV4-11 cells by MTT assay; assay type: functional, cell-based
[16] = tested on: A549; assay: cells; assay type: functional, cell-based; conditions: Homo sapiens
Description: Antiproliferative activity against human A549 cells by MTT assay

[17] = Antiproliferative activity against human SMCC7721 cells assessed as reduction in cell viability after 48 hrs by MTT assay; assay type: functional, cell-based
[18] = tested on: HL-60; assay: Antiproliferative activity against human HL60 cells assessed as reduction in cell viability after 48 hrs by MTT assay; assay type: functional, cell-based; conditions: HL-60, 48 h
[19] = tested on: SW480; assay: Antiproliferative activity against human SW480 cells assessed as reduction in cell viability after 48 hrs by MTT assay; assay type: functional, cell-based; conditions: SW480, 48 h
[20] = tested on: HT-29; assay: Antiproliferative activity against human HT-29 cells assessed as reduction in cell viability after 48 hrs by MTT assay; assay type: functional, cell-based; conditions: HT-29, 48 h
[21] = tested on: HeLa; assay: Antiproliferative activity against human HeLa cells by SRB assay; assay type: functional, cell-based
[22] = tested on: MDA-MB-231; assay: Antiproliferative activity against human MDA-MB-231 cells by SRB assay; assay type: functional
[23] = tested on: DU-145; assay: Antiproliferative activity against human DU145 cells by SRB assay; assay type: functional, cell-based
[24] = tested on: HepG2; assay: Antiproliferative activity against human HepG2 cells by SRB assay; assay type: functional, cell-based
[25] = tested on: U-87 MG; assay: Antiproliferative activity against human U87 cells assessed as reduction in cell viability after 72 hrs by MTT assay; assay type: functional, cell-based, U-87MG ATCC
[26] = tested on: IMR-32; assay: Antiproliferative activity against human IMR32 cells assessed as reduction in cell viability after 72 hrs by MTT assay; assay type: functional, cell-based; conditions: IMR-32, 72 h
[27] = tested on: MDA-MB-231; assay: Antiproliferative activity against human MDA-MB-231 cells assessed as reduction in cell viability after 72 hrs by MTT assay; assay type: functional, cell-based; conditions: MDA-MB-231, 72 h, read-out: IC50
[28] = tested on: HBL-100; assay: Antiproliferative activity against human HBL100 cells assessed as reduction in cell viability after 48 hrs by MTT assay; assay type: functional, cell-based; conditions: HBL-100, 48 h
[29] = tested on: Caco-2; assay: Antiproliferative activity against human Caco2 cells assessed as reduction in cell viability after 72 hrs by MTT assay; assay type: functional, cell-based; conditions: Caco-2, 72 h
[30] = Cytotoxicity against dog MDCK1 cells assessed as reduction in cell viability after 72 hrs by MTT assay; assay type: cell-based; conditions: Canis lupus familiaris, MDCK1, 72 h
[31] = tested on: K562; assay: Antiproliferative activity against human K562 cells assessed as reduction in cell viability after 72 hrs by MTT assay; assay type: functional, cell-based; conditions: K562, 72 h
[32] = tested on: HeLa; assay: Antiproliferative activity against human HeLa cells assessed as reduction in cell viability after 72 hrs by MTT assay; assay type: functional, cell-based
[33] = tested on: U-87 MG; assay: Antiproliferative activity against human U87MG cells assessed as reduction in cell viability after 48 hrs by MTT assay; assay type: functional, cell-based, U-87MG ATCC
[34] = tested on: PC-3; assay: cells; assay type: functional, cell-based; conditions: Homo sapiens, PC-3, 48 h
Description: Antiproliferative activity against human PC3 cells assessed as reduction in cell viability after 48 hrs by MTT assay

IC50 [1]: 7 µM
SMILES: Cc1ccc(-n2nc(N)c(C(=O)NCCNC(=O)c3nn(-c4ccc(C)cc4)nc3N)n2)cc1
IC50 [2]: > 50 µM

IC50 [3]: 510 to 3980 nM
IC50 [4]: 510 to 3980 nM
IC50 [6]: 0.51 to 3.98 µM
IC50 [7]: 0.51 to 3.98 µM
SMILES: COc1cc(-c2ccc(Cn3cc(C(=O)c4c(-c5ccccc5)nc5ccccn45)nn3)cc2)cc(OC)c1OC
IC50 [5]: 63500 nM

IC50 [8]: 2.4 to 4.7 µM
IC50 [9]: 2.4 to 4.7 µM
IC50 [10]: 2.4 to 4.7 µM
SMILES: COc1cc2c(Oc3ccc(NC(=O)C4(C(=O)Nc5ccc(F)cc5)CC4)cc3F)ccnc2cc1OCCCN1CCOCC1 [FORETINIB]

SMILES: C=CCC1CN2CCC1CC2[C@H](O)c1ccnc2ccc(-c3cn(-c4ccccc4)nn3)cc12 (stereo partly specified)
IC50 [11]: 0.53 to 14.6 µM
IC50 [12]: 0.53 to 14.6 µM
IC50 [13]: 0.53 to 14.6 µM
IC50 [14]: 0.53 to 14.6 µM
IC50 [15]: 0.53 to 14.6 µM
IC50 [16]: 0.53 to 14.6 µM

IC50 [7]: 0.43 to 30.5 µM
IC50 [18]: 0.43 to 30.5 µM
IC50 [19]: 0.43 to 30.5 µM
SMILES: CCCC(=O)OC[C@H]1O[C@@H](OC(COCc2cn([C@H]3c4cc5c(cc4[C@@H](c4cc(OC)c(O)c(OC)c4)[C@H]4C(=O)OC[C@@H]43)OCO5)nn2)COCc2cn([C@H]3c4cc5c(cc4[C@@H](c4cc(OC)c(O)c(OC)c4)[C@H]4C(=O)OC[C@@H]43)OCO5)nn2)[C@H](OC(=O)CCC)[C@@H](OC(=O)CCC)[C@@H]1OC(=O)CCC (stereo partly specified)
IC50 [17]: 0.43 to 30.5 µM

IC50 [3]: 1310 to 1620 nM
IC50 [20]: 1.31 to 1.62 µM
IC50 [7]: 1.31 to 1.62 µM
SMILES: COc1ccc(S(=O)(=O)Nc2cccnc2Nc2ccc(O)cc2)cc1 [ABT-751]
IC50 [5]: 1310 to 1620 nM

SMILES: COC(=O)Nc1nc2cc(C(=O)c3cccs3)ccc2[nH]1 [NOCODAZOLE]
IC50 [3]: 1380 to 3100 nM
GI50 [21]: 11 to 34 nM
IC50 [4]: 1380 to 1650 nM
IC50 [5]: 2200 to 3100 nM
IC50 [6]: 1.38 to 1.65 µM
IC50 [20]: 2.2 to 3.1 µM
IC50 [7]: 1.38 to 3.1 µM
GI50 [22]: 11 to 34 nM
GI50 [23]: 11 to 34 nM
GI50 [24]: 11 to 34 nM

SMILES: C=CCC1CN2CCC1CC2[C@@H](c1ccnc2ccc(OC)cc12)n1cc(-c2ccc3ccccc3n2)nn1 (stereo partly specified)
IC50 [11]: 0.53 to 14.6 µM
IC50 [12]: 0.53 to 14.6 µM
IC50 [13]: 0.53 to 14.6 µM
IC50 [14]: 0.53 to 14.6 µM
IC50 [15]: 0.53 to 14.6 µM
IC50 [16]: 0.53 to 14.6 µM

SMILES: C=CCC1CN2CCC1CC2[C@H](O)c1cc(-c2cn(-c3ccc(O)cc3)nn2)nc2ccc(OC)cc12 (stereo partly specified)
IC50 [11]: 0.53 to 14.6 µM
IC50 [12]: 0.53 to 14.6 µM
IC50 [13]: 0.53 to 14.6 µM
IC50 [14]: 0.53 to 14.6 µM
IC50 [15]: 0.53 to 14.6 µM
IC50 [16]: 0.53 to 14.6 µM

IC50 [25]: 42 to 478 nM
IC50 [27]: 42 to 478 nM
SMILES: Cc1n[nH]c(=O)c2c1c1cc(F)ccc1n2Cc1cn(Cc2ccc(F)cc2)nn1
IC50 [26]: 42 to 478 nM

SMILES: C=CCC1CN2CCC1CC2[C@H](O)c1cc(-c2cn(-c3ccccc3)nn2)nc2ccc(OC)cc12 (stereo partly specified)
IC50 [11]: 0.53 to 6.4 µM
IC50 [12]: 0.53 to 6.4 µM
IC50 [13]: 0.53 to 6.4 µM
IC50 [14]: 0.53 to 6.4 µM
IC50 [15]: 0.53 to 6.4 µM
IC50 [16]: 0.53 to 6.4 µM

IC50 [6]: 5.16 to 9.44 µM
IC50 [20]: 5.16 to 9.44 µM
IC50 [7]: 5.16 to 9.44 µM
SMILES: COc1cc(-n2cc(CO[C@H]3CC[C@@]4(C)C(=CC[C@H]5[C@@H]6C[C@@H]7O[C@]8(CC[C@@H](C)CO8)[C@@H](C)[C@@H]7[C@@]6(C)CC[C@@H]54)C3)nn2)cc(OC)c1OC
IC50 [28]: 5.16 to 9.44 µM

IC50 [29]: 9.7 to 81.9 µM
IC50 [31]: 9.7 to 81.9 µM
IC50 [32]: 9.7 to 81.9 µM
SMILES: O=c1cc(Cn2cc(-c3ccccc3)nn2)c2cc(O)c(O)cc2o1
IC50 [30]: 36.7 to 46 µM

IC50 [6]: 5.16 to 9.44 µM
IC50 [20]: 5.16 to 9.44 µM
IC50 [7]: 5.16 to 9.44 µM
SMILES: C[C@@H]1CC[C@@]2(OC1)O[C@H]1C[C@H]3[C@@H]4CC=C5C[C@@H](OCc6cn(-c7ccccc7[N+](=O)[O-])nn6)CC[C@]5(C)[C@H]4CC[C@]3(C)[C@H]1[C@@H]2C
IC50 [28]: 5.16 to 9.44 µM

IC50 [33]: 860 to 3710 nM
IC50 [20]: 0.86 to 3.71 µM
IC50 [7]: 0.86 to 3.71 µM
IC50 [34]: 860 to 3710 nM
SMILES: COc1ccc(-c2nn(-c3ccccc3)cc2C(=O)c2cn(Cc3ccc(OC)c(OC)c3)nn2)cc1
